The assay has as its target T1, SeMT (Saccharopolyspora erythraea, UniProt A4FFC0).
T1 construct: gene SACE_3471; codon-harmonized synthetic gene in pET28a(+), E. coli BL21(DE3), Ni-NTA purified; dimer
T1 sequence (A4FFC0 1-266): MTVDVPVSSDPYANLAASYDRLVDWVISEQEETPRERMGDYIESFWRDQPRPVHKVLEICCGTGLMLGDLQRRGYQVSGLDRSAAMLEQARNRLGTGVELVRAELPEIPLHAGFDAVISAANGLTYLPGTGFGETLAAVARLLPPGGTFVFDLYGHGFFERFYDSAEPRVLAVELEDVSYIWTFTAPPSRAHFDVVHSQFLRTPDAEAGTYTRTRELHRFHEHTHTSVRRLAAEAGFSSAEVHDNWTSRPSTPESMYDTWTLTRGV
In words: X-ray crystallography. It is filed as binding. The note with it: co-crystal with 2 mM SAH, pH 5.6 reservoir; cofactor site (product of methyl transfer).

The structures appear in SMILES notation.

As for `Nc1ncnc2c1ncn2[C@@H]1O[C@H](CSCC[C@H](N)C(=O)O)[C@@H](O)[C@H]1O` [SAH], the X-ray crystallography entry is given as “the demethylated cofactor SAH (included in the sample for crystallization) is found embraced”.

For the origin of these results see publication PMC12394179, “Re‐engineering a transferase scaffold for indole C3 methylation in diketopiperazines” (Protein Science : A Publication of the Protein Society, 2025).
